Series [1] has as its target T1, HIV-1 RT-associated RNase H (Human immunodeficiency virus type 1 group M subtype B, UniProt P04585).
T1 construct: His-tagged p66/p51 HIV-1 RT was expressed in E. coli strain M15; His; made in house; host or cells: Escherichia coli M15
Briefly: RT-associated RNase H assay. The series is classed as biochemical. To be noted: pure compounds; mean ± SD of three independent experiments. As for the experimental part:
(§1) Recombinant 6xHis IN protein, FLAG-IN, His-LEDGF and FLAG-LEDGF were expressed in Escherichia coli strain BL21 (DE3) and purified as previously described. His-tagged p66/p51 HIV-1 RT was expressed in E. coli strain M15 and purified as previously described.
The HIV-1 RNase H activity was determined as described by Esposito et al.. Briefly, 100 µL of volume of reaction containing 50 mM Tris HCl pH 7.8, 6 mM MgCl2, 1 mM DTT, 80 mM KCl, hybrid RNA/DNA (5′-[…]-3′-Fluorescein, 5′-[…]-3′-Dabcyl), and 3.8 nM RT was incubated for 1 h at 37 °C. The reaction was stopped by the addition of EDTA and measured with a plate reader at 490/528 nm.

Series [2] can be described thus: Compound UV–VIS spectra in the presence of MgCl2 (chelation). It counts as physicochemical. To be noted: 6 mM MgCl2, UV–VIS 250–600 nm. As for the experimental part: The ability of compounds to chelate the MgCl2 was measured using 15% ethanol and 15 mM Tris HCl pH 7.8 (in 1 mL of volume). The UV–VIS spectrum was recorded, before and after the addition of 6 mM MgCl2, from 250 nm to 600 nm.

In series [3] the target is T2, HIV-1 IN in the presence of LEDGF/p75 cellular cofactor (Human immunodeficiency virus type 1 group M subtype B, UniProt P04585).
T2 construct: Recombinant 6xHis IN protein, FLAG-IN, His-LEDGF and FLAG-LEDGF were expressed in Escherichia coli strain BL21 (DE3); made in house; host or cells: Escherichia coli BL21 (DE3)
Kind of series: HTRF LEDGF-dependent HIV-1 IN activity assay. The note with it: pure compounds; mean ± SD of three independent experiments. It counts as biochemical. As to the method:
as §1
(§2) The evalaution of 3′-processing and strand-transfer IN reactions in the presence or in the absence of recombinant LEDGF/p75 cellular cofactor were performed as described previously. Briefly, recombinant IN was pre-incubated for 1 h at room temperature, in a buffer containing 20 mM HEPES pH 7.5, 1 mM DTT, 1% Glycerol, 20 mM MgCl2, 0.05% Brij-35 and 0.1 mg/mL BSA and increasing concentrations of the tested compounds.
(§3) Then, 9 nM Biotin3′-DNA donor substrate 50 nM 5′-Cy5-DNA acceptor substrate and 50 nM LEDGF/p75 protein (when required) were added to this reaction and incubated at 37 °C for 90 min.
A general note: TR-FRET usually uses a lanthanide donor and a delayed reading to cut background.

The nature of series [4]: Cytotoxicity, CellTiter-Glo 2.0. The series is classed as cell-based. The note with it: human, TZM-bl cells. As for the experimental part: (§4) Cytotoxicity was determined by the CellTiter-Glo 2.0 Luminescent Cell Viability Assay (Promega) according to the manufacturer’s protocol. Briefly, 15,000 cells/well of Tzm-bl were exposed to serial diluition of the drug and after 48 h, cell viability was calculated by measuring cellular ATP through a luciferase-based chemical reaction. The luminescent signal obtained from cells treated with serial dilution of the tested compounds, or the control (DMSO), was measured using the GloMax® Discover Multimode Microplate Reader (Promega) and processed with GraphPad PRISM software to calculate the half-maximal cytotoxic concentration (CC50). The DMSO curve, used as a control, was added in each plate and SPK-3 was tested in duplicate. The non-toxic dose corresponding to 90–100% cell viability was used as the maximum concentration in the antiviral assays.
For orientation: In ATP-based viability assays light output follows the ATP content of the culture.

Series [5] concerns HIV-1 wild-type reference strain NL4-3. Briefly: Anti-HIV-1 activity in TZM-bl cell line. It counts as cell-based. The note with it: 48 h. As to the method:
The antiviral activity of the investigated compound was evaluated by measuring the IC50 values against the HIV-1 wild-type reference strain NL4-3 in a TZM-bl cell line-based phenotypic assay, as previously published. Briefly, 15,000 cells/well were infected with the wild-type NL4-3 strain at multiplicity of infection (MOI) of 0.1 in the presence of serial diluitions of the drug in a 96-well plate format. […] Each compound was tested in duplicate and tested in two independent experiments. After 48 h, the cells were detached with the Glo-Lysis buffer (Promega, Madison, WI, USA), and the Bright-Glo Luciferase reagent (Promega) was added to each well as indicated by the manufacturer. Finally, the relative luminescence units were measured using the GloMax Discover instrument (Promega) as previously described and processed with GraphPad software to calculate half-maximal inhibitory concentration (IC50) values.

A further series has as its system T3, HIV-1 IN multimerization.
T3 construct: His and FLAG-tagged IN enzymes were added in a buffer containing 25 mM Tris pH 7.4; made in house; host or cells: Escherichia coli BL21 (DE3)
The series is classed as binding. To be noted: concentration for 50% of the multimerization increase. As for the experimental part:
(§5) This IN–IN binding assay allows the verification of higher-order, aberrant IN multimerization or IN–IN subunit exchange. Briefly, His and FLAG-tagged IN enzymes were added in a buffer containing 25 mM Tris pH 7.4, 150 mM NaCl, 2 mM MgCl2, 0.1% Nonidet P-40, and 1 mg/mL BSA [12, 48] with different concentrations of compounds, and incubated for 2.5 h at room temperature. After this time, a mixture of two specific antibodies (anti-His6-XL665 and anti-FLAG-EuCryptate) was added to the reaction and incubated at room temperature for 3 h. The HTRF signal was recorded as described in the previous paragraph.
(§6) The analysis of the signal in order to evaluate the aberrant IN multimerization and interference with the IN–IN subunit exchange or functional IN–IN interactions was performed as described above.

A further series has as its system TZM-bl cells. Briefly: Cytotoxicity, CellTiter-Glo 2.0. The series is classed as cell-based. To be noted: 48 h. As for the experimental part: as §4
Series [6] addresses HIV-1 IN–LEDGF interaction (Human immunodeficiency virus type 1 group M subtype B, UniProt P04585). Kind of series: biochemical. It counts as binding. As to the method: Recombinant His-IN was pre-incubated for 30 min at room temperature in the presence of the tested compounds in a mixture reaction composed of 150 mM NaCl, 2 mM MgCl2, 0.1% Nonidet P-40, 1 mg/mL BSA, and 25 mM Tris pH 7.4 [12, 48]. After this time, FLAG-LEDGF was added and the mixture was incubated for 30 min at room temperature. A mixture of two specific antibodies (anti-His6-XL665 and anti-FLAG-EuCryptate) was then added to the reaction and incubated for 4 h at 4 °C.

For series [7], the target named is T4, HIV-1 IN in the absence of LEDGF (Human immunodeficiency virus type 1 group M subtype B, UniProt P04585).
T4 construct: Recombinant 6xHis IN protein, FLAG-IN, His-LEDGF and FLAG-LEDGF were expressed in Escherichia coli strain BL21 (DE3); made in house; host or cells: Escherichia coli BL21 (DE3)
Kind of series: biochemical. It counts as biochemical. As to the method: as §1, §2, §3

Series [8] concerns the target HIV-1 IN–IN subunit exchange (Human immunodeficiency virus type 1 group M subtype B, UniProt P04585). Kind of series: biochemical. The series is classed as binding. As for the experimental part: as §5, §6

The structures appear in SMILES notation. Where “and” joins values, the source holds several entries; their conditions need not be identical. Equal values may be shown once.

The record followed here is publication PMC10457970, “HIV-1 Integrase Inhibition Activity by Spiroketals Derived from Plagius flosculosus, an Endemic Plant of Sardinia (Italy) and Corsica (France)” (Pharmaceuticals, 2023).

`CC#CC#C/C=C1\C=CC2(CCCO2)O1` (stereo not shown) [SPK1, tonghaosu]: the IC50 (commonly the concentration that inhibits the measured activity by half) in series [1] was 10 ± 5.4 µM; in series [3], 1.69 ± 0.38 µM. Besides, in series [2], the “shift in the maximum of absorbance in the presence of Mg2+” value (from here on “shift in the maximum of absorbance”) is on record as 3.5 nm.

With `Cc1nnc(C(=O)NC(C)(C)c2nc(C(=O)NCc3ccc(F)cc3)c(O)c(=O)n2C)o1` [Raltegravir, reference compound], the CC50 (as a rule, the concentration at which the toxic effect on the cells reaches its halfway point) at 48 h in [4] is above 100 µM. The EC50 (commonly the concentration giving half of the maximal effect) in series [5] (Human immunodeficiency virus 1, NL43, TZM-bl, read-out: EC50 inhibiting HIV-1 viral replication) was 0.0087 µM.

`CCOC(=O)C(=O)CC(=O)/C=C/c1cccn1Cc1ccc(F)cc1` [RDS1643, reference compound]: in [2], the “shift in the maximum of absorbance” value was found to be 16 nm.

Regarding `CC#CC#C/C=C1/O[C@@]2(OC=C[C@H]2OC(C)=O)[C@@H](O)[C@@H]1Cl` [SPK3, flosculin A], the IC50 is 3.6 ± 0.6 µM in series [1]; above 100 µM in [6] (read-out: IN–LEDGF Binding IC50); 1.46 ± 0.16 µM in [3]; 27.3 ± 2.3 µM in series [7] (absence of LEDGF, read-out: LEDGF-Independent IN Activity IC50); above 100 µM in series [8]. Moreover, the “IN Multimerization MI50” value in the series on HIV-1 IN multimerization was 1 µM and 1.00 ± 0.01 µM. Moreover, the CC50 in the series with TZM-bl cells was 50.1 ± 4.3 µM. Also, in series [4], half-maximal cytotoxicity (CC50 at 48 h) was put at 50 µM. Also, the “shift in the maximum of absorbance” value in series [2] stood at 3 nm. In addition, in [6], the “IN–LEDGF Binding IC50” value is “did not inhibit”. Besides, the “decrease in potency on HIV-1 IN in the absence vs presence of LEDGF/p75” value in series [7] (ratio LEDGF-independent / LEDGF-dependent IC50) came to 18.7 fold. The “IN–IN Subunit Exchange IC50” value in [8] is on record as “without any effect”. For the same compound, the “EC50 inhibiting HIV-1 viral replication” value in series [5] (NL4-3, TZM-bl, two independent experiments) is “did not inhibit”.

For `CC#CC#C/C=C1\C=CC2(OC=CC2OC(C)=O)O1` (stereo not shown) [SPK2], the results for the IC50 in series [1] and in series [3] were 20 ± 6.1 µM and 14.7 ± 0.3 µM, respectively. Also, the “shift in the maximum of absorbance” value in series [2] came to 4.5 nm.
